Test results from BindingDB's records for doi:10.1021/jm400944k (China Pharmaceutical University, 2013).

target: T1, Nuclear factor erythroid 2-related factor 2 (Homo sapiens, UniProt Q16236); test: Induction of Nrf2-mediated ARE activity in human HepG2-ARE-C8 cells after 12 hrs by luciferase reporter gene assay
T1 sequence (Q16236 whole entry): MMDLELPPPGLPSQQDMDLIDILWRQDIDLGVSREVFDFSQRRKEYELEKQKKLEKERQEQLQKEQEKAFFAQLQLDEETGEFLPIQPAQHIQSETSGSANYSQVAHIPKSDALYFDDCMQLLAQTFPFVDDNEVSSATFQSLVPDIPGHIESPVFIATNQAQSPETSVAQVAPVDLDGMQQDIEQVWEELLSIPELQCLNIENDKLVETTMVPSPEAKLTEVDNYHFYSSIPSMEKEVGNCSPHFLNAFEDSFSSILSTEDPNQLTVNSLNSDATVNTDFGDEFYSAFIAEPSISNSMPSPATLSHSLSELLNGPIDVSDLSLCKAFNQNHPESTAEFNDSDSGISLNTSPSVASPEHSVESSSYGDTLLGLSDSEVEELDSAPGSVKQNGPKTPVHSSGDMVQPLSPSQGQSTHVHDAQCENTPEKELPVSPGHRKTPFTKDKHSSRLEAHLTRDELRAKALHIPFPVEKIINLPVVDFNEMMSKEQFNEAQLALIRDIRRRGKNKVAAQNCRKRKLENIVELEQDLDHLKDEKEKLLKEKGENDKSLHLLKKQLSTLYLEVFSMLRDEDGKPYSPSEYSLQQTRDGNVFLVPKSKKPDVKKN

`COc1ccc2c(c1)C1CN/C(=C\C(=O)c3ccccc3)C(=O)N1CC2` (configuration not stated) and `COc1ccc2c(c1)CCN1C(=O)/C(=C/C(=O)c3ccccc3)NCC21` (configuration not stated) cannot be ordered by EC50: greater than 100 µM for the first, greater than 100 µM for the second.

Compared with `COc1cc2c(cc1OC)C1CN/C(=C\C(=O)c3cccc(Cl)c3)C(=O)N1CC2` (configuration not stated), `COc1cc2c(cc1OC)C1CN/C(=C\C(=O)c3cccc(F)c3)C(=O)N1CC2` (configuration not stated) is lower in EC50: greater than 100 µM for the first, 92 µM for the second. The second is the more potent here.

`COc1ccc2c(c1)C1CN/C(=C\C(=O)c3cccc(F)c3)C(=O)N1CC2` (configuration not stated) and `COc1ccc2c(c1)CCN1C(=O)/C(=C/C(=O)c3cccc(F)c3)NCC21` (configuration not stated) cannot be ordered by EC50: greater than 100 µM for the first, greater than 100 µM for the second.

`COc1cccc(C(=O)/C=C2\NCC3c4cc(OC)ccc4CCN3C2=O)c1` (configuration not stated) and `COc1ccc2c(c1)C1CN/C(=C\C(=O)c3cccc(Cl)c3)C(=O)N1CC2` (configuration not stated) cannot be ordered by EC50: greater than 100 µM for the first, greater than 100 µM for the second.

`COc1ccccc1C(=O)/C=C1\NCC2c3ccccc3CCN2C1=O` (configuration not stated) and `O=C(/C=C1\NCC2c3ccccc3CCN2C1=O)c1ccccc1Cl` (configuration not stated) cannot be ordered by EC50: greater than 100 µM for the first, greater than 100 µM for the second.

`O=C(/C=C1\NCC2c3ccccc3CCN2C1=O)c1ccccc1[N+](=O)[O-]` (configuration not stated) and `O=C(/C=C1\NCC2c3ccccc3CCN2C1=O)c1ccccc1F` (configuration not stated) cannot be ordered by EC50: greater than 100 µM for the first, greater than 100 µM for the second.

Going from `COc1ccc(C(=O)/C=C2\NCC3c4ccccc4CCN3C2=O)cc1OC` (configuration not stated) to `COc1cc2c(cc1OC)C1CN/C(=C\C(=O)c3ccccc3)C(=O)N1CC2` (configuration not stated), the EC50 rises from 93 µM to greater than 100 µM. The first is the more potent here.

`O=C(/C=C1\NCC2c3ccccc3CCN2C1=O)c1ccc(-c2ccccc2)cc1` (configuration not stated) and `O=C(/C=C1\NCC2c3ccccc3CCN2C1=O)c1ccccc1` (configuration not stated) cannot be ordered by EC50: greater than 100 µM for the first, greater than 100 µM for the second.

`O=C(/C=C1\NCC2c3ccccc3CCN2C1=O)c1ccc(F)c(F)c1` (configuration not stated) and `O=C(/C=C1\NCC2c3ccccc3CCN2C1=O)c1ccc(Cl)cc1` (configuration not stated) cannot be ordered by EC50: greater than 100 µM for the first, greater than 100 µM for the second.

Compared with `COc1cccc(C(=O)/C=C2\NCC3c4ccccc4CCN3C2=O)c1` (configuration not stated), `O=C(/C=C1\NCC2c3ccccc3CCN2C1=O)c1cccc(Br)c1` (configuration not stated) is lower in EC50: greater than 100 µM for the first, 59.1 µM for the second.

`O=C(/C=C1\NCC2c3ccccc3CCN2C1=O)c1ccc([N+](=O)[O-])cc1` (configuration not stated) and `O=C(/C=C1\NCC2c3ccccc3CCN2C1=O)c1cccc([N+](=O)[O-])c1` (configuration not stated) cannot be ordered by EC50: greater than 100 µM for the first, greater than 100 µM for the second.

Compared with `COc1cccc2c1CCN1C(=O)/C(=C/C(=O)c3ccccc3F)NCC21` (configuration not stated), `COc1cccc2c1CCN1C(=O)/C(=C/C(=O)c3ccccc3)NCC21` (configuration not stated) is lower in EC50: greater than 100 µM for the first, 58.5 µM for the second.

`COc1cc2c(cc1OC)C1CN/C(=C\C(=O)c3ccc(F)cc3)C(=O)N1CC2` (configuration not stated) and `COc1cc2c(cc1OC)C1CN/C(=C\C(=O)c3ccccc3F)C(=O)N1CC2` (configuration not stated) are within 1.5-fold of each other in EC50: 81.5 µM for the first, 75.9 µM for the second.

Compared with `COc1cc2c(cc1OC)C1CN/C(=C\C(=O)c3cccc([N+](=O)[O-])c3)C(=O)N1CC2` (configuration not stated), `COc1cccc(C(=O)/C=C2\NCC3c4cc(OC)c(OC)cc4CCN3C2=O)c1` (configuration not stated) is higher in EC50: 49.6 µM for the first, greater than 100 µM for the second.

Going from `O=C(/C=C1\NCC2c3ccccc3CCN2C1=O)c1cc(F)cc(F)c1` (configuration not stated) to `O=C(/C=C1\NCC2c3ccccc3CCN2C1=O)c1cccc(F)c1` (configuration not stated), the EC50 rises from 58.9 µM to greater than 100 µM.

`Cc1ccc(C(=O)/C=C2\NCC3c4ccccc4CCN3C2=O)cc1` (configuration not stated) and `O=C(/C=C1\NCC2c3ccccc3CCN2C1=O)c1ccc(F)cc1` (configuration not stated) cannot be ordered by EC50: greater than 100 µM for the first, greater than 100 µM for the second.

First: COc1ccc2c(c1)C1CN/C(=C\C(=O)c3cccc([N+](=O)[O-])c3)C(=O)N1CC2 (configuration not stated)
Second: COc1ccc2c(c1)C1CN/C(=C\C(=O)c3ccc(F)cc3)C(=O)N1CC2 (configuration not stated)
The EC50 of the first is higher: greater than 100 µM for the first, 88 µM for the second. The second is the more potent here.

`O=C(/C=C1\NCC2c3ccccc3CCN2C1=O)c1ccc(Cl)cc1Cl` (configuration not stated) and `O=C(/C=C1\NCC2c3ccccc3CCN2C1=O)c1cccc(Cl)c1` (configuration not stated) cannot be ordered by EC50: greater than 100 µM for the first, greater than 100 µM for the second.

`COc1ccc2c(c1)CCN1C(=O)/C(=C/C(=O)c3ccccc3F)NCC21` (configuration not stated) and `COc1ccc2c(c1)C1CN/C(=C\C(=O)c3ccccc3F)C(=O)N1CC2` (configuration not stated) cannot be ordered by EC50: greater than 100 µM for the first, greater than 100 µM for the second.

`O=C(/C=C1\NCC2c3ccccc3CCN2C1=O)c1cccc(C(F)(F)F)c1` (configuration not stated) and `COc1ccc(C(=O)/C=C2\NCC3c4ccccc4CCN3C2=O)cc1` (configuration not stated) cannot be ordered by EC50: greater than 100 µM for the first, greater than 100 µM for the second.

Going from `COc1cccc2c1CCN1C(=O)/C(=C/C(=O)c3cccc(F)c3)NCC21` (configuration not stated) to `CC(C)(C)c1cc(O)ccc1O` [CHEBI:78886], the EC50 falls from greater than 100 µM to 91.5 µM.
